Measurements reported in patent US6706663B2, “Herbicidal 3-heterocyclic substituted benzisothiazole and benzisoxazole compounds” (Wyeth, priority 2000, dated 2004).

Assays:
[1] = tested on: ABUTH (Abutilon theophrasti); assay: Postemergence herbicidal evaluation; type: in vivo, Medic.
Summary of the method: (§1)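 Visual 0–9 injury scores versus control plants, covering stand, vigour, malformation, size, chlorosis and general appearance, taken four to five weeks post-spray and averaged over replicate tests. Plants were sprayed at roughly two weeks old and held on greenhouse benches.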

[2] = tested on: AMBEL (Ambrosia artemisifolia); assay: Postemergence herbicidal evaluation; type: in vivo, L.
Summary of the method: as §1

[3] = tested on: CASOB (Cassia obtusifolia); assay: Postemergence herbicidal evaluation; type: in vivo, L.
Summary of the method: as §1

[4] = tested on: CHEAL (Chenopodium album); assay: Postemergence herbicidal evaluation; type: in vivo, L.
Summary of the method: as §1

GALAP (Galium aparine) [5] = assay: Postemergence herbicidal evaluation; type: in vivo
Summary of the method: as §1

[6] = tested on: IPOHE (Ipomoea hederacea); assay: Postemergence herbicidal evaluation; type: in vivo, (L.) Jacq.
Summary of the method: as §1

[7] = tested on: GLXMAW (Soybean, Williams); assay: Postemergence herbicidal evaluation; type: in vivo, Glycine max, (L.) Merr. cv Williams
Summary of the method: as §1

ORYSAT (Rice, Tebonnet) [8] = assay: Postemergence herbicidal evaluation; type: in vivo, Oryza sativa, (L.) Tebonnet
Summary of the method: as §1

ZEAMX (Corn, Field) = assay: Postemergence herbicidal evaluation; type: in vivo, Zea mays, L.
Summary of the method: as §1

GALAP (Galium aparine) [9] = assay: Preemergence herbicidal evaluation; type: in vivo; conditions: preemergence, rated 4-5 weeks after treatment
Summary of the method: (§2)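 Preemergence soil spray, aq. acetone; greenhouse; visual 0–9 score vs control at 4–5 wk.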

[10] = tested on: ECHCG (Echinochloa crus-galli); assay: Preemergence herbicidal evaluation; type: in vivo, (L.) Beau; conditions: preemergence, rated 4-5 weeks after treatment
Summary of the method: as §2

SETVI (Setaria viridis) = assay: Preemergence herbicidal evaluation; type: in vivo, (L.) Beau; conditions: preemergence, rated 4-5 weeks after treatment
Summary of the method: as §2

ORYSAT (Rice, Tebonnet) [11] = assay: Preemergence herbicidal evaluation; type: in vivo, Oryza sativa, (L.) Tebonnet; conditions: preemergence, rated 4-5 weeks after treatment
[12] = tested on: TRZAWR (Wheat, Winter, cv Riband); assay: Preemergence herbicidal evaluation; type: in vivo, Triticum aestivum; conditions: preemergence, rated 4-5 weeks after treatment
Summary of the method: as §2

Row | Compound | Postemergence herbicidal rating, ABUTH ([1]; rate 0.0320 kg/ha) | Postemergence herbicidal rating, ABUTH ([1]; rate 0.0620 kg/ha) | Postemergence herbicidal rating, AMBEL ([2]; rate 0.0320 kg/ha) | Postemergence herbicidal rating, AMBEL ([2]; rate 0.0620 kg/ha) | Postemergence herbicidal rating, CASOB ([3]; rate 0.0320 kg/ha) | Postemergence herbicidal rating, CASOB ([3]; rate 0.0620 kg/ha) | Postemergence herbicidal rating, CHEAL ([4]; rate 0.0320 kg/ha) | Postemergence herbicidal rating, CHEAL ([4]; rate 0.0620 kg/ha) | Postemergence herbicidal rating, GALAP (GALAP (Galium aparine) [5]; rate 0.0320 kg/ha) | Postemergence herbicidal rating, GALAP (GALAP (Galium aparine) [5]; rate 0.0620 kg/ha) | Postemergence herbicidal rating, IPOHE ([6]; rate 0.0320 kg/ha) | Postemergence herbicidal rating, IPOHE ([6]; rate 0.0620 kg/ha) | Postemergence herbicidal rating, GLXMAW ([7]; rate 0.0320 kg/ha) | Postemergence herbicidal rating, GLXMAW ([7]; rate 0.0620 kg/ha) | Postemergence herbicidal rating, ORYSAT (ORYSAT (Rice, Tebonnet) [8]; rate 0.0320 kg/ha) | Postemergence herbicidal rating, ORYSAT (ORYSAT (Rice, Tebonnet) [8]; rate 0.0620 kg/ha) | Postemergence herbicidal rating, ZEAMX (ZEAMX (Corn, Field); rate 0.0320 kg/ha) | Postemergence herbicidal rating, ZEAMX (ZEAMX (Corn, Field); rate 0.0620 kg/ha) | GALAP preemergence herbicidal rating (GALAP (Galium aparine) [9]; Rate 0.0620 kg/ha) | GALAP preemergence herbicidal rating (GALAP (Galium aparine) [9]; Rate 0.1250 kg/ha) | further results
1 | Cn1c(C(F)(F)F)cc(=O)n(-c2ccc3snc(C4SCCS4)c3c2)c1=O [Compound 24, 3-[3-(1,3-dithiolan-2-yl)-1,2-benzisothiazol-5-yl]-1-methyl-6-(trifluoromethyl)uracil] | 9.0 | 9.0 | 9.0 | 9.0 | 3.0 | 9.0 | 9.0 | 9.0 | 3.0 | 4.0 | 9.0 | 9.0 | 8.0 | 8.5 | 2.0 | 2.5 | 5.5 | 6.0 | 5.0 | 5.0 | ECHCG preemergence herbicidal rating ([10]; Rate 0.0620 kg/ha): 0.0; ECHCG preemergence herbicidal rating ([10]; Rate 0.1250 kg/ha): 1.5; ECHCG preemergence herbicidal rating ([10]; Rate 0.2500 kg/ha): 5.0; SETVI preemergence herbicidal rating (SETVI (Setaria viridis); Rate 0.0620 kg/ha): 3.5; SETVI preemergence herbicidal rating (SETVI (Setaria viridis); Rate 0.1250 kg/ha): 8.0; SETVI preemergence herbicidal rating (SETVI (Setaria viridis); Rate 0.2500 kg/ha): 9.0; ORYSAT preemergence herbicidal rating (ORYSAT (Rice, Tebonnet) [11]; Rate 0.0620 kg/ha): 0.0; ORYSAT preemergence herbicidal rating (ORYSAT (Rice, Tebonnet) [11]; Rate 0.1250 kg/ha): 3.0; ORYSAT preemergence herbicidal rating (ORYSAT (Rice, Tebonnet) [11]; Rate 0.2500 kg/ha): 6.0; TRZAWR preemergence herbicidal rating ([12]; Rate 0.0620 kg/ha): 0.0; TRZAWR preemergence herbicidal rating ([12]; Rate 0.1250 kg/ha): 2.0
2 | Cn1c(C(F)(F)F)cc(=O)n(-c2ccc3snc(C4OCCCO4)c3c2)c1=O [Compound 28, 3-(3-m-dioxan-2-yl-1,2-benzisothiazol-5-yl)-1-methyl-6-(trifluoromethyl)uracil] | 9.0 | 9.0 | 9.0 | 9.0 | 8.0 | 9.0 | 9.0 | 9.0 | 8.3 | 9.0 | 8.3 | 9.0 | 9.0 | 9.0 | 5.3 | 6.5 | 5.8 | 6.3 | 9.0 | 9.0 | GALAP preemergence herbicidal rating (GALAP (Galium aparine) [9]; Rate 0.2500 kg/ha): 9.0; ECHCG preemergence herbicidal rating ([10]; Rate 0.0620 kg/ha): 9.0; ECHCG preemergence herbicidal rating ([10]; Rate 0.1250 kg/ha): 9.0; ECHCG preemergence herbicidal rating ([10]; Rate 0.2500 kg/ha): 9.0; SETVI preemergence herbicidal rating (SETVI (Setaria viridis); Rate 0.0620 kg/ha): 9.0; SETVI preemergence herbicidal rating (SETVI (Setaria viridis); Rate 0.1250 kg/ha): 9.0; SETVI preemergence herbicidal rating (SETVI (Setaria viridis); Rate 0.2500 kg/ha): 9.0; ORYSAT preemergence herbicidal rating (ORYSAT (Rice, Tebonnet) [11]; Rate 0.0620 kg/ha): 9.0; ORYSAT preemergence herbicidal rating (ORYSAT (Rice, Tebonnet) [11]; Rate 0.1250 kg/ha): 9.0; ORYSAT preemergence herbicidal rating (ORYSAT (Rice, Tebonnet) [11]; Rate 0.2500 kg/ha): 9.0; TRZAWR preemergence herbicidal rating ([12]; Rate 0.0620 kg/ha): 9.0; TRZAWR preemergence herbicidal rating ([12]; Rate 0.1250 kg/ha): 9.0; TRZAWR preemergence herbicidal rating ([12]; Rate 0.2500 kg/ha): 9.0
3 | CC(=O)N1CCSC1c1nsc2ccc(-n3c(=O)cc(C(F)(F)F)n(C)c3=O)cc12 (stereo not shown) [Compound 29, 3-acetyl-2-[5-[3,6-dihydro-3-methyl-2,6-dioxo-4-(trifluoromethyl)-1(2H)-pyrimidinyl]-1,2-benzisothiazol-3-yl]thiazolidine] | 9.0 | 9.0 | 9.0 | 9.0 | 2.0 | 5.0 | 9.0 | 9.0 | 4.0 | 6.0 | 9.0 | 9.0 | 7.5 | 8.0 | 3.0 | 3.0 | 6.0 | 6.0 | 3.0 | 7.0 | GALAP preemergence herbicidal rating (GALAP (Galium aparine) [9]; Rate 0.2500 kg/ha): 9.0; ECHCG preemergence herbicidal rating ([10]; Rate 0.0620 kg/ha): 5.5; ECHCG preemergence herbicidal rating ([10]; Rate 0.1250 kg/ha): 6.5; ECHCG preemergence herbicidal rating ([10]; Rate 0.2500 kg/ha): 8.0; SETVI preemergence herbicidal rating (SETVI (Setaria viridis); Rate 0.0620 kg/ha): 6.5; SETVI preemergence herbicidal rating (SETVI (Setaria viridis); Rate 0.1250 kg/ha): 7.5; SETVI preemergence herbicidal rating (SETVI (Setaria viridis); Rate 0.2500 kg/ha): 9.0; ORYSAT preemergence herbicidal rating (ORYSAT (Rice, Tebonnet) [11]; Rate 0.0620 kg/ha): 4.0; ORYSAT preemergence herbicidal rating (ORYSAT (Rice, Tebonnet) [11]; Rate 0.1250 kg/ha): 5.0; ORYSAT preemergence herbicidal rating (ORYSAT (Rice, Tebonnet) [11]; Rate 0.2500 kg/ha): 6.5; TRZAWR preemergence herbicidal rating ([12]; Rate 0.0620 kg/ha): 2.0; TRZAWR preemergence herbicidal rating ([12]; Rate 0.1250 kg/ha): 8.0; TRZAWR preemergence herbicidal rating ([12]; Rate 0.2500 kg/ha): 8.0
